Values quoted from earlier work in patent US20200338088A1, “Methods for Treating Neutrophilic Dermatoses with SYK Inhibitors” (Rush University Medical Center, priority 2018, published 2020).

System: rat collagen-induced arthritis model
Conditions: daily oral dose of 10 mg/kg (10 μg/g), after 7 days

For c1cn2cc(-c3ccc4cn[nH]c4c3)nc(Nc3ccc(N4CCOCC4)cc3)c2n1 [GS-9973, 6-(1H-indazol-6-yl)-N-(4-morpholin-4-ylphenyl)imidazo[1,2-a]pyrazin-8-amine], the ankle inflammation is given as “significantly inhibited ankle inflammation”.
